Source: patent US7094794B2, “Substituted thiazole-benzoisothiazole dioxide derivatives, process for their preparation and their use” (Sanofi-Aventis Deutschland GmbH, priority 2003, dated 2006)

Target: T1, recombinant hPTP1B (human PTP1B, 1-299 aa) (Homo sapiens, UniProt P18031)
T1 construct: without the carboxy-terminal hydrophobic region (corresponding to 1-299 aa); made in house; host or cells: Sf9 insect cells (baculovirus, Bac-to-Bac, pFASTBAC)
T1 sequence (P18031 1-299): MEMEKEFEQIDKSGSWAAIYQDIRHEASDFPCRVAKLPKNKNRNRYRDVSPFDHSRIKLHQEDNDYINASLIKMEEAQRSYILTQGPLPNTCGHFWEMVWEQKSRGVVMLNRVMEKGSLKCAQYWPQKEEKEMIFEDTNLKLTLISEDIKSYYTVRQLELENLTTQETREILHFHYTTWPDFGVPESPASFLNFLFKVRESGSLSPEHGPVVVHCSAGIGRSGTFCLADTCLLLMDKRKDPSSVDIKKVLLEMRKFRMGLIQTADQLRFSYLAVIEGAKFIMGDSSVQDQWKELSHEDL
Experiment: Enzymatic test systems for detecting inhibition of a phosphatase (in vitro assay)
Type: biochemical
Details: Table 2 does not say which substrate (phosphopeptide or p-nitrophenyl phosphate)
Procedure: Enzymatic Test Systems for Detecting Inhibition of a Phosphatase
The compounds of the formula I were tested for their phosphatase-inhibiting effect in an in vitro assay. The enzyme preparation and the performance of the assay was carried out as follows.
• Sf9 cells (=Spodoptera frugiperda cell type; obtainable from invitrogen) are cultured in Grace's supplemented medium (Gibco-BRL) with 10% heat-inactivated fetal calf serum (Gibco-BRL) in spinner flasks at 28° C. in accordance with the protocol of Summers and Smith (A Manual for Methods for Baculoviruns Vectors and Insect Culture Procedures [Bulletin No. 15555]. Texas A & M University, Texas Agricultural Experiment Station, College Station, Tex., 1987). • Construction of recombinant Baculovirus transfer vectors: cDNA coding for the regulatory and catalytic domains of human PTP1B, but without the carboxy-terminal hydrophobic region (corresponding to 1-299 aa) was obtained by polymerase chain reaction via primers with attached cloning sites and suitable cDNA templates (obtainable for example from invitrogen) and then cloned into baculovirus expression vectors (Amersham Pharmacia Biotech.). The recombinant baculoviruses were prepared with the aid of the Bac-to-Bac baculovirus expression system (obtainable from Gibco-BRL). The gene was cloned into the pFASTBAC donor plasmid (obtainable from Life Technologies). The resulting plasmid was transformed into competent DH10BAC Escherichia coli cells (obtainable from Life Technologies). After transposition and antibiotic selection, the recombinant plasmid DNA was isolated from selected E. coli colonies and then used for the transfection of Sf9 insect cells. The virus particle in the supernatant medium was amplified three times up to a viral stock volume of 500 ml. B) Production of Recombinant Protein: • Baculovirus infection of a 500 ml spinner culture of Sf9 cells was essentially carried out as described by Summers and Smith (see above). Sf9 cells at a density of 1–3×10^6 cells/ml were pelleted by centrifugation at 300 g for 5 min, the supernatant was removed, and the cells were resuspended in a density of 1×10^7 cells/ml in a suitable recombinant viral stock (MOI 10). After careful shaking at room temperature for 1.5 h, fresh medium was added in order to achieve a cell density of 1×10^6 cells/ml. The cells were then cultured in the suspension at 28° C. for suitable periods after postinfection. C) Cellular Fractionation and Complete Cell Extracts of Infected Sf9 Cells: • After the postinfection, aliquots were subjected to an analysis of protein expression by SDS-PAGE and Western blot analysis. The cellular fractionation was carried out as described (Cromlish, W. and Kennedy, B. Biochem. Pharmacol. 52: 1777–1785, 1996). Complete cell extracts were obtained from 1 ml aliquots of the infected Sf9 cells after certain times postinfection. The pelleted cells (300×g, 5 min) were washed once in phosphate-buffered saline (4° C.), resuspended in 50 μl of water and disrupted by repeated freezing/thawing. Protein concentrations were determined with the aid of the Bradford method and bovine serum albumin as standard. Assay Procedure: A) Dephosphorylation of a Phosphopeptide: • This assay is based on the release of phosphate from a consensus substrate peptide which is detected in the nanomolar concentration range by the malachite green/ammonium molybdate method (Lanzetta, P. A., Alvarez, L. J., Reinach, P. S., Candia, O. A. Anal Biochem. 100: 95–97, 1979) adapted for the microtiter plate format. The dodecatrisphosphopeptide TRDIYETDYYRK (Biotrend, Cologne) corresponds to amino acids 1142–1153 of the catalytic domain of the insulin receptor and is (auto)phosphorylated on tyrosine residues 1146, 1150 and 1151. […]

Row | IC50 [µM] | Compound
1 | > 80 | O=S1(=O)Cc2cc(Nc3nc(-c4ccncc4)cs3)ccc2N1 [Example 13]
2 | 15.9 | Cc1sc(Nc2ccc3c(c2)CS(=O)(=O)N3)nc1-c1ccccc1 [Example 5]
3 | 48 | COc1ccc(-c2csc(Nc3ccc4c(c3)CS(=O)(=O)N4)n2)c(OC)c1 [Example 6]
4 | 6.2 | O=S1(=O)Cc2cc(Nc3nc(-c4ccc(Br)cc4)cs3)ccc2N1 [Example 4]
5 | 8.8 | O=S1(=O)Cc2cc(Nc3nc(-c4ccc5ccccc5c4)cs3)ccc2N1 [Example 3]
6 | 5.9 | O=S1(=O)Cc2cc(Nc3nc(-c4ccc(N5CCCC5)cc4)cs3)ccc2N1 [Example 8]
7 | 5.3 | Cc1c(-c2csc(Nc3ccc4c(c3)CS(=O)(=O)N4)n2)sc2ccc(Cl)cc12 [Example 10]
8 | 7.9 | O=S1(=O)Cc2cc(Nc3nc(-c4cccc(Br)c4)cs3)ccc2N1 [Example 7]
9 | 6.2 | Cc1c(-c2csc(Nc3ccc4c(c3)CS(=O)(=O)N4)n2)sc2ccccc12 [Example 11]
10 | 6.3 | COc1cccc(-c2csc(Nc3ccc4c(c3)CS(=O)(=O)N4)n2)c1 [Example 9]
11 | 27.8 | O=S1(=O)Cc2cc(Nc3nc(-c4ccc(Cl)c(Cl)c4)cs3)ccc2N1 [Example 2]
12 | 2.77 | CC(C)(C)c1cc(-c2csc(Nc3ccc4c(c3)CS(=O)(=O)N4)n2)cc(C(C)(C)C)c1O [Example 14]
